Measured values as given in patent publication US7642261B2, “Use of 1-[4-(5-cyanoindol-3-yl)butyl]-4-(2-carbamoyl-benzofuran-5-yl)-piperazine and its physiologically acceptable salts” (Merck Patent GmbH, priority 2002, dated 2010).

What was measured:
Assay type in all cases: in vivo
[1] = test system: mice; experiment: Marble Burying Test (model for OCSD including OCD); conditions: 3 mg/kg, subcutaneous application
Method: A typical model for OCSD including OCD is the Marble Burying Test according to Y. Ichimaru, T. Egawa, A. Sawa, Jpn. J. Pharmacol. 1995, 68: 65-70.
The apparatus consists of an open cubic box with 25 clean glass marbles evenly spaced on sawdust. Individual mice are placed in the test box, and the number of glass marbles left uncovered after 20 minutes are counted. 1-[4-(5-cyanoindol-3-yl)butyl]-4-(2-carbamoyl-benzofuran-5-yl)-piperazine or one of its physiologically acceptable salts, in particular 1-[4-(5-cyanoindol-3-yl)butyl]-4-(2-carbamoyl-benzofuran-5-yl)-piperazine hydrochloride, following subcutaneous application inhibits mable burying in mice dose-dependently. For example, a dose of 3 mg/kg of 1-[4-(5-cyanoindol-3-yl)butyl]-4-(2-carbamoyl-benzofuran-5-yl)-piperazine hydrochloride nearly completely (92%) inhibits marble burying; equieffective doses of conventional serotonin reuptake inhibitors are e.g. 20 mg/kg for fluvoxamine or 17 mg/kg for fluoxetine and an equieffective dose of the 5-HT1A agonist ipsapirone is 10 mg/kg.

[2] = test system: mice; experiment: Neophobia model: unfamiliar food in a novel environment; conditions: mice deprived from food for 18 h, oral application, 3 mg/kg
Method: In a typical model for neophobia, mice deprived from food for 18 h are given access to unfamiliar food in a novel environment [P. Soubrie at al., Psychopharmacologica, 1975, 45: 203-210]. 1-[4-(5-cyanoindol-3-yl)butyl]-4-(2-carbamoyl-benzofuran-5-yl)-piperazine or one of its physiologically acceptable salts, in particular 1-[4-(5-cyanoindol-3-yl)butyl]-4-(2-carbamoyl-benzofuran-5-yl)-piperazine hydrochloride, following oral application increased food intake by 21% at the dose of 3 mg/kg.

[3] = test system: mice or rats; experiment: Hyperactivity induced by a mixture of dexamphetamine and chlordiazepoxide (model of mania/bipolar disorders); conditions: compared with lithium and valproate
Text: A typical animal model of mania/bipolar disorders is the hyperactivity induced by a mixture of dexamphetamine and chlordiazepoxide according to A. L. Vale and F. Ratcliffe, Psychopharmacology, 1987; 91: 352-355, and B. J. Cao and N. A. Peng, Eur. J. Pharmacol., 1993; 237: 177-181. The dexamphetamine-chlordiazepoxide mixture induces strong hyperactivity in mice or rats.

[4] = test system: rats; experiment: Passive Avoidance test with scopolamine (model for dementia); conditions: 10 mg/kg p.o., compared to untreated rats
Text: Typical models for dementia, Alzheimer's disease and multi-infarct are the Passive Avoidance test in rats [S. D. Glick and B. Zimmerberg, Behav. Biol., 1972, 7: 245-254; D. K. Rush, Behav. Neural Biol., 1988, 50: 255-274] and the testing of memory functions in the Morris Water Maze in aged rats [R. Morris, J. Neurosci. Methods, 1984, 11: 47-60, F. H. Gage et al. Neurobiol. Aging. 1984, 5: 43-48].
For the Passive Avoidance test, the apparatus is a runway separated from a dark compartment by a small door. The amnestic drug scopolamine is administered before the animal is submitted to an aquisition trial: the rat is placed on the entry of the runway opposite to the dark compartment, the latency to enter the dark compartment is recorded, and once the rat has entered the dark compartment, the door is closed and a foot schock is administered via the gridfloor. A retention trial is performed 48 h later identical to the aquisition trial (without scopolamine) and the latency to enter the dark compartment recorded again. […]

[5] = test system: rats; experiment: Animal models of sexual function (behavioural measures for sexual activity); conditions: penile erection, ejaculatory behaviour, mating frequency in male rats, receptive behaviours in female rats
Text: In animal models, various behavioural measures for sexual function can be used in animal models depending on the targeted dysfunction in humans, e.g. reduced libido, anorgasmia, or ejaculation disorders. Measures for sexual activity in animals include fascilitation or prolongation of penile erection, ejaculatory behaviour or frequency of mating behaviour in male rats, or the percentage of receptive behaviours in female rats [e.g.: S. Ahlenius and K. Larsson, Neurochem. Res., 1997, 22: 1065-1070; S. Ahlenius and K. Larsson, Psychopharmacology, 1998, 137: 374-382; J. Vega-Matuszcyk et al., Pharmacol. Biochem. Behav., 1998, 60: 527-532; J. M. Cantor et al., Psychopharmacology, 1999; 144: 355-362]. 1-[4-(5-cyancindol-3-yl)butyl]-4-(2-carbamoyl-benzofuran-5-yl)-piperazine or one of its physiologically acceptable salts, in particular 1-[4-(5-cyanoindol-3-yl)butyl]-4-(2-carbamoyl-benzofuran-5-yl)-piperazine hydrochloride, were effective on various measures mentioned before.

[6] = Development of body weight, dogs
Text: Thus, differential effects on body weight indicating therapeutic efficacy in either obesity or anorexia depending on the dose range used are evident.

## Cl.N#Cc1ccc2[nH]cc(CCCCN3CCN(c4ccc5oc(C(N)=O)cc5c4)CC3)c2c1 [1-[4-(5-cyanoindol-3-yl)butyl]-4-(2-carbamoyl-benzofuran-5-yl)-piperazine hydrochloride]
[1]
  inhibition of marble burying: 92%
[2]
  increase of food intake: 21%
[3]
  inhibition of hyperactivity induced by the dexamphetamine-chlordiazepoxide mixture: to the same degree as do lithium and valproate
[4]
  increase of latency to enter the dark compartment in the first retention trial: 78%
[5]
  effect on measures for sexual activity: effective
[6]
  development of body weight: reduced development of body weight
